Counter-ions that a name gives are not always drawn.
Target: T1, LSD1 (Homo sapiens, UniProt O60341)
T1 construct: endogenous in cells; host or cells: Embryoid bodies formed from control human iPSC line CTR1R-C3
Assay: Embryoid body formation assay with LSD1 inhibitor treatment, RT-qPCR of GTF2I target genes
Assay type: cell-based
Details: control iPSC line, treatment for 5 days at day 0 and day 4, final concentration 5 uM (Oryzon), 10 uM (DDP26095)
Method: Retrotranscribed cDNAs have been obtained from 1 μg of total DNA-depleted RNA using the superscript VILO retrotranscription kit from Life Technologies according to manufacturer instructions.
For real time q-PCR analysis a total amount of cDNA corresponding to 10-50 ng of starting RNA has been used for each reaction. FAST SYBR green master mix from Life Technologies and 10 μM primers pair have been used.
10 uM RA has been added at day 0 or at day 4. At day 1 EBs have been plated on a low attachment dish and media was replaced with KO-DMEM (+P/S+Glut)(EB media) 20% FBS containing. […] Next, RNA extraction and cDNA preparation has been performed as described above.

| SMILES | BEND4 mRNA level (RT-qPCR, percentage of GAPDH) upon irreversible LSD1 inhibition |
| --- | --- |
| N[C@@H]1C[C@H]1c1ccc(NC(=O)c2cccc(N3CCOC3=O)c2)cc1 (relative stereo) [DDP26095, N-[4-[trans-2-aminocyclopropyl]phenyl]-3-(2-oxooxazolidin-3-yl)benzamide hydrochloride] | increased |
| Cl.N[C@H]1CC[C@H](N[C@@H]2C[C@H]2c2ccccc2)CC1 [Oryzon, (trans)-N1-((1R,2S)-2-phenylcyclopropyl)cyclohexane-1,4-diamine hydrochloride] | increased |

Source: patent publication US11369577B2, “Reprogramming-based models of neurodevelopmental disorders and uses thereof” (IEO—Istituto Europeo di Oncologia S.r.l., priority 2014, dated 2022)
